Data set [1] can be described thus: lyophilization and rehydration of calcein-loaded LUVs (contents loss, DLS, cryo-TEM). Format: physicochemical. As to conditions: used in place of cholesterol glycopolymer 8 in DPPC or hydrogenated ePC LUVs. As for the experimental part: (§1) The anhydrobiotic membrane preservation properties of the trehalose polymers on supported lipid bilayers (SLBs) were tested. […] Moreover, lyophilized calcein-loaded trehalose-polymer vesicles could be rehydrated without contents loss and maintenance of vesicle size distribution. The cryo-preservative effects of trehalose and other sugars on proteins and membrane structures has been known for some time, though high solution concentrations are required; here we find that preservative properties at mole ratios of about 10% to about 30%. This preservative property permits long-term anhydrous storage of reagents without compromising therapeutic effect. Thus, membrane-anchored polysaccharides may be a useful biotechnology tool for production of systemic drug carriers that are stable to attack from serum proteins, dehydration and freeze-drying.
Sugar solutions (10:1 sugar:lipid) are known to protect LUVs from contents loss and fusion upon lyophilization and rehydration. It was find that covalent presentation of polymeric trehalose on multiple lipid anchors confers significant membrane anhydrobiotic and cryo-protection at sugar:lipid ratios of 0.1-0.3. […] LUVs containing phospholipid glycodimer 7 and phospholipid glycopolymer 9 readily deposited, possibly by virtue of higher membrane fluidity.

Data set [2] can be described thus: contents release assay of calcein-loaded vesicles in fetal bovine serum. Format: in vitro ADME. As to conditions: vesicles of 80% DPPC and 20% dimer. The source says: […] Vesicle stabilization by the glycolipid derivatives was strongly affected by degree of oligomerization and solubility. […] Though there is clearly an advantage to structures larger than a dimer, larger oligomer or polymers may be limited by their ability to incorporate into the lipid membrane. Thus, it was difficult to achieve mole percent incorporation levels higher than 10% for phospholipid glycopolymer 9 and 30% for cholesterol glycopolymer 8.

Data set [3] can be described thus: dehydration-rehydration of supported lipid bilayers (SLBs), microscopy and FRAP. As to conditions: supported lipid bilayers on glass. Format: physicochemical. The method, then:
as §1
FIGS. 10A and 10B are photomicrographs of supported lipid bilayers containing (A) phospholipid dimer 7 or (B) phospholipid polymer. The mole percent is as indicated. The top rows of (A) and (B) show freshly formed SLBs; whereas the bottom rows show SLBs after drying and rehydration. The photos were taken at 10× magnification and the scale bar is 100 μm. FIGS. 10C and 10D show FRAP containing SLBs with 10% phospholipid polymer before and after dehydration, respectively. These photos were taken at 40× magnification and the scale bar is 40 μm.

Regarding `CC(C)CCC[C@@H](C)[C@H]1CC[C@H]2[C@@H]3CC=C4C[C@@H](O)CC[C@]4(C)[C@H]3CC[C@]12C` [cholesterol], the “contents loss and fusion after lyophilization and rehydration” value in data set [1] is “total contents loss and extensive fusion”.

For the molecule “trehalose cholesterol thioglycolate thioether dimer”, the “contents loss upon exposure to serum” value in data set [2] is on record as “greatly minimized”. Further, in data set [3], the “protection of SLBs from delamination on drying/rehydration” value was “protect supported lipid bilayers from delamination upon drying”.

The record behind these values is patent US9446147B2, “Membrane stabilizing compositions and methods” (The Ohio State University, priority 2011, dated 2016).
